This note sets out measurements from ChEMBL document CHEMBL5236615, “Discovery of Novel N-Heterocyclic-Fused Deoxypodophyllotoxin Analogues as Tubulin Polymerization Inhibitors Targeting the Colchicine-Binding Site for Cancer Treatment” (J Med Chem, 2022).

One series relates to HT-29. Description: Antiproliferative activity against human HT-29 cells measured after 72 hrs by MTT assay. The note with it: HT-29, 72 h. In kind it is functional, cell-based. (Tetrazolium dyes change colour on reduction, which living cells bring about.)
In another series the test system is HCT-116. Description: Antiproliferative activity against human HCT-116 cells measured after 72 hrs by MTT assay. The class given is functional, cell-based. The settings on record: HCT-116, 72 h.
A short description of series [1]: Antiproliferative activity against paclitaxel-resistant human MCF7/TxR cells measured after 72 hrs by MTT assay. In kind it is functional, cell-based.
A short description of series [2]: Antiproliferative activity against paclitaxel-resistant human A549/TxR cells measured after 72 hrs by MTT assay. The class given is functional, cell-based.
Series [3] is described as follows: Antitumor activity against paclitaxel-resistant human MCF7/TxR cells xenografted in Balb/c mouse assessed as tumor growth inhibition at 10 mg/kg, ip administered for every 2 days for 21 days. The class given is functional. The note with it: 504 h, time 21 day, read-out: TGI. (In general: In xenograft studies the graft and the host belong to different species.)

The nature of series [4]: Toxicity in Balb/c mouse assessed as pathological changes in blood alanine aminotransferase level at 10 mg/kg, ip administered for every 2 days for 14 days. The class given is organism-based. The settings on record: in vivo, 336 h, time 14 day.
Series [5] can be described thus: Toxicity in Balb/c mouse assessed as pathological changes in blood aspartate aminotransferase level at 10 mg/kg, ip administered for every 2 days for 14 days. In kind it is organism-based. The note with it: in vivo, 336 h, time 14 day.
The next series relates to K562. Description: cells. The note with it: Homo sapiens, K562, 72 h.
Another series relates to MCF7. In words: cells. The note with it: Homo sapiens, MCF7, 72 h.
Series [6] concerns the target Tubulin beta (Homo sapiens) (UniProt P68371+Q9H4B7+Q13509+P04350+Q3ZCM7+P07437+Q13885+Q9BVA1+Q9BUF5+A6NNZ2). Description: Binding affinity to beta-tubulin colchicine binding site in human MCF-7 cells assessed as inhibition of EBI-beta-tubulin adduct band formation preincubated for 2 hrs followed by EBI addition and measured after 1.5 hrs by EBI competition based Western blotting analysis. The note with it: MCF7, dose 0.2-25 µM, time 3.5 hrs. The class given is cell-based.

Another series concerns the target Tubulin (Homo sapiens) (UniProt P68371+Q9H4B7+P0DPH7+P68366+Q13509+Q71U36+P04350+Q3ZCM7+P07437+P68363+Q9BQE3+Q6PEY2+Q13885+Q9BVA1+Q9BUF5). In words: Disruption of microtubule network in human MCF7 cells assessed as broken microtubule filaments at 20 nM measured after 6 hrs by immunofluorescence assay. In kind it is cell-based.

Activity calls are given as the source filed them. The calls are words filed in the database; no cut-off is given here.

Description for K562: Antiproliferative activity against human K562 cells measured after 72 hrs by MTT assay
Description for MCF7: Antiproliferative activity against human MCF7 cells measured after 72 hrs by MTT assay

As usually defined, the IC50 is the concentration at which inhibition is half-maximal. Consider `CC(=O)O[C@H]1C(=O)[C@@]2(C)[C@H]([C@H](OC(=O)c3ccccc3)[C@]3(O)C[C@H](OC(=O)[C@H](O)[C@@H](NC(=O)c4ccccc4)c4ccccc4)C(C)=C1C3(C)C)[C@]1(OC(C)=O)CO[C@@H]1C[C@@H]2O` [PACLITAXEL], for which the IC50 turned out to be 10.8 nM in the series on HT-29; 62.9 nM in the series with HCT-116; 2750 nM in [1]; 1670 nM in series [2]; 29.6 nM in the series with K562; 19.7 nM in the series on MCF7. The inhibition in vivo at 10 mg/kg in series [3] turned out to be 28.6%. Further, the Activity entry in series [4] and in series [5] was “Toxic” in each case.

With `COc1ccc(/C=C\c2cc(OC)c(OC)c(OC)c2)cc1O` [COMBRETASTATIN A4], the half-inhibitory concentration (IC50) was 391 nM with HT-29; 6.8 nM with HCT-116; 15.4 nM in [1]; 49.9 nM in [2]; 11.2 nM in the series on K562; 5.9 nM in the series with MCF7. Also, the Activity entry in series [6] is “Dose-Dependent Effect”. The result on Tubulin (Homo sapiens) was Active.
